Data reported in PubChem BioAssay (NCI).
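Step 1: Grow cells in 96-well plates. Step 2: Expose to compound for 48 hours at 5 concentrations. Step 3: Interpolate endpoints linearly; if unreached, use highest concentration. TGI: total growth inhibition.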

How the values were obtained:
Test in all cases: growth of human tumour cells (NCI), 48 h
RXF 393 renal = system: RXF 393 renal
OVCAR-5 ovarian = system: OVCAR-5 ovarian
A549 NSCLC = system: A549 NSCLC
A498 renal = system: A498 renal
HOP-62 NSCLC = system: HOP-62 NSCLC
MDA-N = system: MDA-N
IGROV1 ovarian = system: IGROV1 ovarian
KM12 colon = system: KM12 colon
UO-31 renal = system: UO-31 renal
TK-10 renal = system: TK-10 renal

Row | SMILES | TGI (RXF 393 renal) [µM] | TGI (OVCAR-5 ovarian) [µM] | TGI (A549 NSCLC) [µM] | TGI (A498 renal) [µM] | TGI (HOP-62 NSCLC) [µM] | TGI (MDA-N) [µM] | TGI (IGROV1 ovarian) [µM] | TGI (KM12 colon) [µM] | TGI (UO-31 renal) [µM] | TGI (TK-10 renal) [µM]
1 | O=C(c1ccccc1F)c1c(NCc2ccccc2)c(=O)c1=O | > 100 | > 100 | > 100 | > 100 | > 100 | > 100 | > 100 | > 100 | > 100 | > 100
2 | CN(C)c1ccc(C(=NNC(=O)c2cc3ccccc3[nH]2)c2ccc(N(C)C)cc2)cc1 | 15 | > 45.5 | > 100 | 26.3 | 33.7 | 1.49 | 25.9 | > 100 | > 59.3 | 30.1
3 | O=C(Nc1cccc2nsnc12)c1cc2c(cc1Cl)Sc1nccn1S2(=O)=O | 18 | > 91.6 | 56.1 | 26.5 | 4.37 | 34.3 | 46.6 | 4.65 | 4.41 | 16.3
